According to US9452177B2, “Vitamin D compounds and methods for reducing ocular hypertension (OHT)” (Wisconsin Alumni Research Foundation, priority 2008, dated 2016):
“Also recorded” adds a separate entry of the source.

How the values were obtained:
[1] = test system: eyes of ocular normotensive cynomolgus monkeys; test: Intraocular pressure (IOP) by Goldmann applanation tonometry after 5 twice-daily unilateral topical treatments; assay type: in vivo, cynomolgus monkeys (Macaca fascicularis); conditions: Example 1; for rank order of ocular hypotensive effect: 5 uniocular topical treatments at the same dose; for IOP after the 5th treatment / IOP prior to the 5th treatment compared with baseline: AGR 5 μg n=4, 2MD 6 μg n=8; for IOP prior to the 5th treatment compared with baseline: both treated and control eye
Method: Ocular normotensive adult cynomolgus monkeys (Macaca fascicularis), of either sex, weighing 3-7 kg were anesthetized with i.m. ketamine HCl (3-25 mg/kg, supplemented with 1-10 mg/kg) for IOP and topical drop administration. All monkeys were free of any ocular abnormalities according to slit lamp biomicroscopy at the time measurements were taken. The monkeys were provided by the Primate Center at the University of Wisconsin-Madison. All experiments were done in accordance with the ARVO Statement on the Use of Animals in Ophthalmic and Vision Research.
(§1) The intraocular pressure (IOP) was determined with a “minified” Goldmann applanation tonometer [Kaufman, 1980] using HALF AND HALF™ creamer solution (Borden) as the tear film indicator [Croft, 1997] with the monkey lying prone in a head holder and the eyes positioned 4 to 8 cm above the heart. All monkeys were examined by slit-lamp before the first IOP measurement in each protocol. For each eye, two or three IOP measurements were averaged as a baseline.
Under ketamine anesthesia (KETAJECT™, Phoenix Pharmaceutical, St Joseph, Mo. (3-25 mg/kg i.m., supplemented with 1-10 mg/kg i.m. as needed) baseline IOP was determined, usually between 7:30 and 9 am (2 readings, 5 minutes apart; if IOP baseline measurements were not within 2-3 mm Hg of each other, a 3rd reading was taken 5 min later). Baseline IOP was at least 15 mmHg if possible. A baseline blood sample was taken from the femoral artery or vein, or sometimes the brachial vein (1-2 ml). This was allowed to clot and then spun down (3000 rpm for 10 min, Damon/IEC NH-SII centrifuge) and the serum removed and frozen at −20 C for no more than 1 week. Baseline systolic, diastolic and mean arterial pressure as well as heart rate were recorded with the Dinamap monitor from a cuff placed around the arm or the leg.
After baseline measurements, the monkey was place supine with the eye pointing up and the eyelid held open. A 5 μl drop of test material or vehicle was delivered to opposite eyes. The eyelid was held open for at least 30 sec and the eye was maintained in the upward position for an additional 30 sec. The monkey was then returned to its cage and allowed to wake up. In the afternoon, at least 6 hours after the morning treatment, another treatment was administered. On the second day, dosing was repeated in the am and pm.
(§2) On the 3th day, prior to the 5th treatment, baseline IOP, biomicroscopy and MAP were determined. Preliminary studies indicated an effect was observed after these treatments but not after a single treatment. Following the 5th dose, IOP was measured at 1, 2, 3, 4, 5, 6, 7, 8, 12 (if possible), 24, and sometimes 48 hr. Biomicroscopy was done at 1, 3, 6, 24 and sometimes 48 hr. MAP on day 3 (some protocols) was determined at 1, 2, 3, 4, 5, 6, 7, 8, 24 and sometimes 48 hr if possible. Blood samples after the 5th treatment were collected at 6, 24, and sometimes 48 hr. For some protocols, IOP was also measured prior to each treatment; MAP was measured prior to the morning treatment; blood was collected prior to the afternoon treatment. Subsequent screening protocols will not include the MAP and blood collections and will only measure IOP at baseline and prior to and for 1-6 hr after the 5th treatment.
Adult cynomolgus monkeys (Macaca fascicularis) of either sex were anesthetized with intramuscular ketamine HCl (10 mg/kg initial, 5 mg/kg supplemental). Baseline pretreatment IOP was determined by Goldmann applanation tonometry [Kaufman, 1980] with […] used as a tear film indicator [Croft, 1997]. Two baseline IOP measurements were taken 5 minutes apart. […]

[2] = Ocular inflammation by slit-lamp biomicroscopy; assay type: in vivo, cynomolgus monkeys (Macaca fascicularis); conditions: Example 1; 5 topical treatments, 5 μg (2MD 6 μg)
Method: as §1, §2
Baseline pretreatment IOP was determined by Goldmann applanation tonometry [Kaufman, 1980] with […] used as a tear film indicator [Croft, 1997]. Two baseline IOP measurements were taken 5 minutes apart. Monkeys were then treated topically with 5 μl of 1,25-dihydroxyvitamin D3 (1,25-(OH)2D3) (0.1-5 μg) to one eye and vehicle (propylene glycol) to the opposite eye twice a day for 5 treatments total. […] IOP was also measured prior to the afternoon treatment. On the third day, IOP was measured prior to the morning treatment. Following the fifth treatment, IOP was measured hourly for 8 hours and, in some cases, also at 12, 24, and 48 hours. […]

ocular inflammation [2] | SMILES | rank order of ocular hypotensive effect [1] | IOP after the 5th treatment [1] | IOP prior to the 5th treatment compared with baseline [1] | IOP in treated eye compared with control eye ([1]; 5 μg (2MD 6 μg) in 5 μl propylene glycol one eye, vehicle opposite eye) | IOP in the control (vehicle, contralateral) eye after the 5th treatment ([1]; AGR 5 μg in opposite eye)
no ocular inflammation at any time-point | C=C1[C@H](O)CC(=C/C=C2\CCC[C@]3(C)[C@@H]([C@@H](C)CCCC(C)(C)O)CC[C@@H]23)C[C@H]1O [2MD, 2-methylene-19-nor-(20S)-1α,25-dihydroxyvitamin D3] | 1,25(OH)2D3>2MD>AGR | gradually decreased over the next 8 hours similar to the diurnal decline seen with vehicle alone; also recorded: small drug effect at 6 and 7 hours | no different than at baseline | – | –
no ocular inflammation at any time-point | CC(CCCC(C)(C)O)C1CCC2C(=CC=C3CC(O)C(=CCCO)C(O)C3)CCCC21C (stereo not drawn) [AGR, 2-(3′-hydroxypropylidene)-19-nor-1α,25-dihydroxyvitamin D3] | 1,25(OH)2D3>2MD>AGR | not significantly decreased in the treated eye except at the 3 hr time point | no different than at baseline | no difference between the eyes at any time-point | no change in IOP in the control eye
